Data on one molecule can be found in patent US8952043B2, “Benzoxepin PI3K inhibitor compounds and methods of use” (Genentech, Inc., priority 2009, dated 2015).

What all share (type): cell-based
One test relates to AU565. The experiment in a line: CellTiter-Glo cell proliferation assay, AU565. Conditions: Homo sapiens, Breast, mutation status WT. Here is the method: (§1) The in vitro potency of Formula I exemplary compounds was measured by the cell proliferation assay, CellTiter-Glo® Luminescent Cell Viability Assay, commercially available from Promega Corp., Madison, Wis. (Example 602). This homogeneous assay method is based on the recombinant expression of Coleoptera luciferase (U.S. Pat. Nos. 5,583,024; 5,674,713; 5,700,670) and determines the number of viable cells in culture based on quantitation of the ATP present, an indicator of metabolically active cells (Crouch et al (1993) J. Immunol. Meth. 160:81-88; U.S. Pat. No. 6,602,677). The CellTiter-Glo® Assay was conducted in 96 or 384 well format, making it amenable to automated high-throughput screening (HTS) (Cree et al (1995) AntiCancer Drugs 6:398-404). The homogeneous assay procedure involves adding the single reagent (CellTiter-Glo® Reagent) directly to cells cultured in serum-supplemented medium. Cell washing, removal of medium and multiple pipetting steps are not required. The system detects as few as 15 cells/well in a 384-well format in 10 minutes after adding reagent and mixing.
(§2) Efficacy of Formula I compounds were measured by a cell proliferation assay employing the following protocol (Promega Corp. Technical Bulletin TB288; Mendoza et al (2002) Cancer Res. 62:5485-5488):
(§3) 1. An aliquot of 100 μl of cell culture containing about 10^4 cells (PC3, Detroit562, or MDAMB361.1) in medium was deposited in each well of a 384-well, opaque-walled plate.
(§4) 2. Control wells were prepared containing medium and without cells.
(§5) 3. The compound was added to the experimental wells and incubated for 3-5 days.
(§6) 4. The plates were equilibrated to room temperature for approximately 30 minutes.
(§7) 5. A volume of CellTiter-Glo Reagent equal to the volume of cell culture medium present in each well was added.
(§8) 6. The contents were mixed for 2 minutes on an orbital shaker to induce cell lysis.
(§9) 7. The plate was incubated at room temperature for 10 minutes to stabilize the luminescence signal.
(§10) 8. Luminescence was recorded and reported in graphs as RLU=relative luminescence units.
(§11) Alternatively, cells were seeded at optimal density in a 96 well plate and incubated for 4 days in the presence of test compound. Alamar Blue™ was subsequently added to the assay medium, and cells were incubated for 6 hr before reading at 544 nm excitation, 590 nm emission. EC50 values were calculated using a sigmoidal dose response curve fit. […] It is commonly used as a measure of drug potency.
(§12) The anti-proliferative effects of Formula I exemplary compounds were measured by the CellTiter-Glo® Assay against various tumor cell lines, including the following: […]
A general note: In ATP-based viability assays light output follows the ATP content of the culture.

Another test relates to BT474. The experiment in a line: CellTiter-Glo cell proliferation assay, BT474. To be noted: Homo sapiens, BT-474, Breast, mutation status PI3K(amped). The method, then: as §1, §2
1. […]
as §9, §10
(§13) Alternatively, cells were seeded at optimal density in a 96 well plate and incubated for 4 days in the presence of test compound. Alamar Blue™ was subsequently added to the assay medium, and cells were incubated for 6 hr before reading at 544 nm excitation, 590 nm emission. EC50 values were calculated using a sigmoidal dose response curve fit. […]
as §12

For another test, the system named is EVSA-T. In words: CellTiter-Glo cell proliferation assay, EVSA-T. Conditions: Homo sapiens, Breast, mutation status PTEN. The method, then:
as §1, §2, §3, §4, §5, §6, §7, §8, §9, §10, §11, §12

The subject of another test is HCC1954. In words: CellTiter-Glo cell proliferation assay, HCC1954. To be noted: Homo sapiens, Breast, mutation status PI3K. Here is the method:
as §1, §2
1. […]
as §9, §10, §13, §12

A further test has as its system KPL4. In words: CellTiter-Glo cell proliferation assay, KPL4. Conditions: Breast, mutation status PI3K. Here is the method: as §1, §2
1. […]
as §9, §10, §13, §12

The next test deals with MDA-MB-361.1. The experiment in a line: CellTiter-Glo cell proliferation assay, MDA-MB-361.1. To be noted: Breast, mutation status PI3K. Here is the method:
as §1, §2, §3, §4, §5, §6, §7, §8, §9, §10, §11, §12

The subject of another test is MFM223. In words: CellTiter-Glo cell proliferation assay, MFM223. Conditions: Homo sapiens, MFM-223, Breast, mutation status PI3K. The method, then:
as §1, §2
1. […]
as §9, §10, §13, §12

In another test the test system is SKBR3. In words: CellTiter-Glo cell proliferation assay, SKBR3. Conditions: Homo sapiens, SK-BR-3, Breast, mutation status WT. The method, then:
The in vitro potency of Formula I exemplary compounds was measured by the cell proliferation assay, CellTiter-Glo® Luminescent Cell Viability Assay, commercially available from Promega Corp., Madison, Wis. (Example 602). This homogeneous assay method is based on the recombinant expression of Coleoptera luciferase (U.S. Pat. Nos. 5,583,024; 5,674,713; 5,700,670) and determines the number of viable cells in culture based on quantitation of the ATP present, an indicator of metabolically active cells (Crouch et al (1993) J. Immunol. Meth. 160:81-88; U.S. Pat. No. 6,602,677). […]
Efficacy of Formula I compounds were measured by a cell proliferation assay employing the following protocol (Promega Corp. Technical Bulletin TB288; Mendoza et al (2002) Cancer Res. 62:5485-5488): […]
as §9, §10, §13

For the next test, the system named is T47D. In words: CellTiter-Glo cell proliferation assay, T47D. Conditions: Homo sapiens, Breast, mutation status PI3K. The method, then:
as §1, §2
1. […]
as §9, §10, §13, §12

A further test deals with H2122. The experiment in a line: CellTiter-Glo cell proliferation assay, H2122. Conditions: Homo sapiens, NCI-H2122, Lung(NSCLC), mutation status K-RAS. Here is the method:
as §1, §2
1. […]
as §9, §10, §13, §12

A further test deals with PC3. The experiment in a line: CellTiter-Glo cell proliferation assay, PC3. Conditions: Homo sapiens, PC-3, Prostate, mutation status PTEN. The method, then:
as §1, §2
1. […]
as §9, §10, §13, §12

The EC50 is the concentration giving half of the maximal effect. The low end stands for an effect from little substance, the high end for a need for much substance. Take `Cc1nc(-c2nc3c(s2)CCOc2cc(-c4cn(CCO)cn4)ccc2-3)n(C(C)C)n1` [compound 440, 2-{4-[2-(2-Isopropyl-5-methyl-2H-[1,2,4]triazol-3-yl)-4,5-dihydro-6-oxa-3-thia-1-aza-benzo[e]azulen-8-yl]-imidazol-1-yl}-ethanol]: the EC50 is 1240 nM in the test with AU565; 1630 nM with BT474; 4930 nM in the test with EVSA-T; 1620 nM in the test with HCC1954; 338 nM in the test on KPL4; 2610 nM in the test with MDA-MB-361.1. Also, the EC50 was determined as 4410 nM with MFM223; 1730 nM in the test with SKBR3; 569 nM in the test with T47D; 10000 nM with H2122; 3030 nM with PC3.
